Patent US4389408A, “Novel ampicillin esters and production thereof” (priority 1980, dated 1983)
Counter-ions that a name gives are not always drawn. Like-named read-outs stand apart in the source and are kept apart here.

Tests used:
[1] = Concentration in blood in oral administration (blood Ampicillin level ratio); type: in vivo, mice (ddy)
Protocol: Each of the test compounds was orally administered in a dose of 50 mg/kg calculated as Ampicillin to four week old mice (ddy, body weight about 20 g, five per group) which had been caused to fast overnight (the amount is equivalent to 0.2 ml of a 5 mg/ml aqueous solution of Ampicillin). The blood was taken from the experimental animals periodically, and the concentration of Ampicillin in the serum was measured by a bioassay method. The blood Ampicillin level ratio was calculated from the following equation. [formula]

in vitro [2] = type: in vitro ADME; settings: for metabolised at 1 h / metabolised at 2 h / metabolised at 4 h / metabolised at 6 h / metabolised at 20 h: simulated gastric juice, pH 1.2
Protocol: Each of the test compounds was dissolved to a predetermined concentration in an acidic aqueous medium (simulated gastric juice) having a pH of 1.2 prepared by adding 2.0 g of sodium chloride, 24 ml of 10% hydrochloric acid and 3.2 g of pepsin to 1000 ml of water. While the solution was shaken at 37° C., it was periodically sampled. The sampled solution was subjected to high-speed liquid chromatography using a reversed phase partition column, and the hydrolysis ratio of the compound was determined from a decrease in the peak height of the compound in the chromatogram.

in vitro [3] = type: in vitro ADME; settings: for metabolised at 5 min / metabolised at 10 min / metabolised at 20 min / metabolised at 0.5 h / metabolised at 1 h: simulated intestinal juice, pH 7.5
Protocol: The procedure of (a) was repeated except that a basic aqueous medium (simulated intestinal juice) having a pH of 7.50 prepared by adding 35.8 g of disodium phosphate, 6.0 ml of 10% hydrochloric acid and 2.8 g of pancreatin to 1000 ml of water was used instead of the acidic aqueous medium.

[4] = Conversion to Ampicillin in 40% mouse blood (bioautography); type: in vitro ADME; settings: 40% mouse blood in pH 7.4 phosphate buffer, 37° C., 10 minutes
Protocol: The resulting Ampicillin ester hydrochloride was incubated in 40% mouse blood in pH 7.4 phosphate buffer at 37° C. for 10 minutes, and then subjected to bioautography.

in vivo = settings: mouse, mice, aqueous solution
[5] = cited from earlier work

Row | Structure (SMILES) | metabolised at 1 h (in vitro [2]) [%] | metabolised at 2 h (in vitro [2]) [%] | metabolised at 4 h (in vitro [2]) [%] | metabolised at 6 h (in vitro [2]) [%] | metabolised at 20 h (in vitro [2]) [%] | metabolised at 5 min (in vitro [3]) [%] | metabolised at 10 min (in vitro [3]) [%] | metabolised at 20 min (in vitro [3]) [%] | metabolised at 0.5 h (in vitro [3]) [%] | metabolised at 1 h (in vitro [3]) [%] | Conversion to Ampicillin [4] | also measured
1 | Cc1oc(=O)oc1COC(=O)[C@@H]1N2C(=O)[C@@H](NC(=O)[C@H](N)c3ccccc3)[C@H]2SC1(C)C [A, Ampicillin (5-methyl-2-oxo-1,3-dioxolen-4-yl)methyl ester hydrochloride] | 7 | 15 | 20 | 28 | 52 | 16 | 32 | 48 | 65 | 80 | completely converted to Ampicillin | Duration of high Ampicillin concentrations in blood [1]: maintained over a long period of time
2 | CC1(C)S[C@@H]2[C@H](NC(=O)[C@H](N)c3ccccc3)C(=O)N2[C@H]1C(=O)OC1CCCc2oc(=O)oc21 (stereo partly shown) [Ampicillin (2,3-carbonyldioxy-2-cyclohexenyl)ester hydrochloride] |  |  |  |  |  |  |  |  |  |  | completely converted to Ampicillin | 
3 | CC1(C)S[C@@H]2[C@H](NC(=O)[C@H](N)c3ccccc3)C(=O)N2[C@H]1C(=O)OCc1coc(=O)o1 [Ampicillin (2-oxo-1,3-dioxolen-4-yl)methyl ester hydrochloride] |  |  |  |  |  |  |  |  |  |  | completely converted to Ampicillin | 
4 | CC1(C)S[C@@H]2[C@H](NC(=O)[C@H](N)c3ccccc3)C(=O)N2[C@H]1C(=O)OCc1oc(=O)oc1-c1ccccc1 [B, Ampicillin (2-oxo-5-phenyl-1,3-dioxolen-4-yl)methyl ester hydrochloride] | 9 | 20 | 30 | 35 | 65 | 18 | 37 | 53 | 70 | 90 | completely converted to Ampicillin | Duration of high Ampicillin concentrations in blood [1]: maintained over a long period of time; Rate of hydrolysis relative to that of Ampicillin phthalidyl ester (in vitro [2]): about one half; Rate of hydrolysis relative to that of Ampicillin phthalidyl ester (in vitro [3]): about one half; LD50 (in vivo; intravenous): 270 mg/kg; LD50 (in vivo; ip, intraperitoneal): 1770 mg/kg; LD50 (in vivo; oral): > 5000 mg/kg
5 | CC1(C)S[C@@H]2[C@H](NC(=O)[C@H](N)c3ccccc3)C(=O)N2[C@H]1C(=O)OC1OC(=O)c2ccccc21 (stereo partly shown) [C, Ampicillin phthalidyl ester hydrochloride, reference compound] | 18 | 31 | 43 | 55 | 100 | 39 | 61 | 90 | 95 | 100 |  | 
6 | CC(C)(C)C(=O)OCOC(=O)[C@@H]1N2C(=O)[C@@H](NC(=O)[C@H](N)c3ccccc3)[C@H]2SC1(C)C [Pivampicillin, Ampicillin pivaloyloxymethyl ester] |  |  |  |  |  |  |  |  |  |  |  | Blood Ampicillin concentrations in oral vs intramuscular administration ([5]; oral administration, British Pat. Nos. 1,215,812 and 1,364,672): comparable blood Ampicillin concentrations in oral administration to those obtained by intramuscular administration
7 | CC1(C)S[C@@H]2[C@H](NC(=O)[C@H](N)c3ccccc3)C(=O)N2[C@H]1C(=O)OC1OC(=O)c2ccccc21 (stereo partly shown) [Talampicillin, Ampicillin phthalidyl ester] |  |  |  |  |  |  |  |  |  |  |  | Blood Ampicillin concentrations in oral vs intramuscular administration ([5]; in vivo, po): comparable blood Ampicillin concentrations in oral administration to those obtained by intramuscular administration
